Measurements: ChEMBL document CHEMBL1121511, “Antileukemic compounds derived from the chemical modification of macrocyclic trichothecenes. 1. Derivatives of verrucarin A” (1980)

System: P388
Test: Antileukemic activity in vivo against P-388 mouse leukemia cell expressed as Dose
Assay type: functional

## CC(=O)OC1C(=O)OC[C@]23CC[C@H](C)C[C@H]2O[C@@H]2C[C@@H](OC(=O)/C=C\C=C\C(=O)OCCC1C)[C@@]3(C)C21CO1 (stereo partly specified) [VERRUCARIN A ACETATE]
  Dose: >1
